Measurements taken from ChEMBL document CHEMBL1201861, “Genomics of Drug Sensitity in Cancer screening data, Wellcome Trust Sanger Institute”.

Tests used:
Assay in all cases: cells
LAMA-84 = assay type: functional, cell-based; conditions: Homo sapiens;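 further: growth inhibition of LAMA-84 cells, read out with a cell viability assay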
Description: SANGER: Inhibition of human LAMA-84 cell growth in a cell viability assay.

HuP-T4 = assay type: functional, cell-based, Homo sapiens; conditions: Homo sapiens, HuP-T4;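 further: cell viability assay measuring how much HuP-T4 cell growth is inhibited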
Description: SANGER: Inhibition of human HuP-T4 cell growth in a cell viability assay.

OMC-1 = assay type: functional, cell-based, Homo sapiens; conditions: Homo sapiens, OMC-1;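 further: growth inhibition of the OMC-1 cell line, measured by a cell viability assay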
Description: SANGER: Inhibition of human OMC-1 cell growth in a cell viability assay.

LS-411N = assay type: functional, cell-based, Homo sapiens; conditions: Homo sapiens, LS-411N
A-375 = assay type: functional, cell-based, Homo sapiens; conditions: Homo sapiens, A-375;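 further: growth inhibition of A375 cells, read out with a cell viability assay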
Description: SANGER: Inhibition of human A375 cell growth in a cell viability assay.

MEL-HO = assay type: functional, cell-based, Homo sapiens; conditions: Homo sapiens, MEL-HO
Description: SANGER: Inhibition of human MEL-HO cell growth in a cell viability assay.

BFTC-905 = assay type: functional, cell-based, Homo sapiens; conditions: Homo sapiens, BFTC-905
Description: SANGER: Inhibition of human BFTC-905 cell growth in a cell viability assay.

NTERA-2-cl-D1 = assay type: functional, cell-based, Homo sapiens; conditions: Homo sapiens, NTERA-2-cl-D1;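 further: inhibition of cell growth, measured with a cell viability assay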
Description: SANGER: Inhibition of human NTERA-S-cl-D1 cell growth in a cell viability assay.

OVCAR-4 = assay type: functional, cell-based, Homo sapiens; conditions: Homo sapiens, OVCAR-4;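 further: growth inhibition of human OVCAR-4 cells, measured with a cell viability assay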
Description: SANGER: Inhibition of human OVCAR-4 cell growth in a cell viability assay.

KM-H2 = assay type: functional, cell-based; conditions: Homo sapiens;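 further: growth inhibition of KM-H2 cells, read out by a cell viability assay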
Description: SANGER: Inhibition of human KM-H2 cell growth in a cell viability assay.

A204 = assay type: functional, cell-based, Homo sapiens; conditions: Homo sapiens, A204;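 further: growth inhibition of human A204 cells, read out with a cell viability assay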
Description: SANGER: Inhibition of human A204 cell growth in a cell viability assay.

TE-10 = assay type: functional, cell-based, Homo sapiens; conditions: Homo sapiens, TE-10;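 further: growth inhibition of TE-10 cells, measured by a cell viability assay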
Description: SANGER: Inhibition of human TE-10 cell growth in a cell viability assay.

HCC1806 = assay type: functional, cell-based, Homo sapiens; conditions: Homo sapiens, HCC1806;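 further: growth inhibition of the cancer cell line, determined with a cell viability assay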
Description: SANGER: Inhibition of human HCC1806 cell growth in a cell viability assay.

G-402 = assay type: functional, cell-based, Homo sapiens; conditions: Homo sapiens, G-402
Description: SANGER: Inhibition of human G-402 cell growth in a cell viability assay.

A-431 = assay type: functional, cell-based, Homo sapiens; conditions: Homo sapiens, A-431;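 further: growth inhibition of A-431 cells, determined with a cell viability read-out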
Description: SANGER: Inhibition of human A431 cell growth in a cell viability assay.

RT-112 = assay type: functional, cell-based, Homo sapiens; conditions: Homo sapiens, RT-112
Description: SANGER: Inhibition of human RT-112 cell growth in a cell viability assay.

IA-LM = assay type: functional, cell-based, Homo sapiens; conditions: Homo sapiens, IA-LM;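 further: cell viability assay measuring growth inhibition of human IA-LM cells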
Description: SANGER: Inhibition of human IA-LM cell growth in a cell viability assay.

U-87 MG = assay type: functional, cell-based, U-87MG ATCC; conditions: Homo sapiens;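 further: growth inhibition of the cells measured with a viability assay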
Description: SANGER: Inhibition of human U-87-MG cell growth in a cell viability assay.

MG-63 = assay type: functional, cell-based, Homo sapiens; conditions: Homo sapiens, MG-63;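 further: growth inhibition of human MG-63 cells, read out with a cell viability assay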
Description: SANGER: Inhibition of human MG-63 cell growth in a cell viability assay.

MC116 = assay type: functional, cell-based; conditions: Homo sapiens;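 further: growth inhibition of MC116 cells, read out with a cell viability assay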
Description: SANGER: Inhibition of human MC116 cell growth in a cell viability assay.

UO-31 = assay type: functional, cell-based; conditions: Homo sapiens;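 further: cell viability assay measuring inhibition of cell growth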
Description: SANGER: Inhibition of human U031 cell growth in a cell viability assay.

CAL-33 = assay type: functional, cell-based, Homo sapiens; conditions: Homo sapiens, CAL-33;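 further: growth inhibition of CAL-33 cells, read out with a cell viability assay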
Description: SANGER: Inhibition of human CAL-33 cell growth in a cell viability assay.

GCT = assay type: functional, cell-based, Homo sapiens; conditions: Homo sapiens, GCT;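 further: GCT cell line proliferation inhibition, read out with a cell viability assay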
Description: SANGER: Inhibition of human GCT cell growth in a cell viability assay.

NCI-H727 = assay type: functional, cell-based, Homo sapiens; conditions: Homo sapiens, NCI-H727;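 further: growth inhibition of human NCI-H727 cells, read out with a cell viability assay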
Description: SANGER: Inhibition of human NCI-H727 cell growth in a cell viability assay.

NCI-H1581 = assay type: functional, cell-based, Homo sapiens; conditions: Homo sapiens, NCI-H1581;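 further: cell growth inhibition read out by a viability assay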
Description: SANGER: Inhibition of human NCI-H1581 cell growth in a cell viability assay.

HH = assay type: functional, cell-based; conditions: Homo sapiens
Description: SANGER: Inhibition of human HH cell growth in a cell viability assay.

RPMI-7951 = assay type: functional, cell-based, Homo sapiens; conditions: Homo sapiens, RPMI-7951
Description: SANGER: Inhibition of human RPMI-7951 cell growth in a cell viability assay.

DK-MG = assay type: functional, cell-based, Homo sapiens; conditions: Homo sapiens, DK-MG;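 further: growth inhibition of DK-MG cells, read out with a cell viability assay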
Description: SANGER: Inhibition of human DK-MG cell growth in a cell viability assay.

BE-13 = assay type: functional, cell-based; conditions: Homo sapiens;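 further: growth inhibition of human BE-13 cells, measured with a cell viability assay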
Description: SANGER: Inhibition of human BE-13 cell growth in a cell viability assay.

MFM-223 = assay type: functional, cell-based, Homo sapiens; conditions: Homo sapiens, MFM-223
Description: SANGER: Inhibition of human MFM-223 cell growth in a cell viability assay.

JAR = assay type: functional, cell-based, Homo sapiens; conditions: Homo sapiens, JAR;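 further: growth inhibition of human JAR cells determined with a cell viability assay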
Description: SANGER: Inhibition of human JAR cell growth in a cell viability assay.

CAL-85-1 = assay type: functional, cell-based; conditions: Homo sapiens;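 further: growth inhibition of human CAL-85-1 cells, read out with a cell viability assay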
Description: SANGER: Inhibition of human CAL-85-1 cell growth in a cell viability assay.

H4 = assay type: functional, cell-based; conditions: Homo sapiens
Description: SANGER: Inhibition of human H4 cell growth in a cell viability assay.

CAMA-1 = assay type: functional, cell-based, Homo sapiens; conditions: Homo sapiens, CAMA-1;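 further: growth inhibition of CAMA-1 cells, read out with a cell viability assay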
Description: SANGER: Inhibition of human CAMA-1 cell growth in a cell viability assay.

KOSC-2 = assay type: functional, cell-based, Homo sapiens; conditions: Homo sapiens, KOSC-2;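 further: growth inhibition of KOSC-2 cells, read out by a cell viability assay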
Description: SANGER: Inhibition of human KOSC-2 cell growth in a cell viability assay.

UACC-257 = assay type: functional, cell-based, Homo sapiens; conditions: Homo sapiens, UACC-257
Description: SANGER: Inhibition of human UACC-257 cell growth in a cell viability assay.

697 = assay type: functional, cell-based; conditions: Homo sapiens
Description: SANGER: Inhibition of human 697 cell growth in a cell viability assay.

BEN = assay type: functional, cell-based, Homo sapiens; conditions: Homo sapiens, BEN;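 further: growth inhibition of the BEN cell line, read out with a cell viability assay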
Description: SANGER: Inhibition of human BEN cell growth in a cell viability assay.

KARPAS-299 = assay type: functional, cell-based; conditions: Homo sapiens
Description: SANGER: Inhibition of human KARPAS-299 cell growth in a cell viability assay.

HuCCT-1 = assay type: functional, cell-based, Homo sapiens, HuCCT1; conditions: Homo sapiens, HuCCT-1;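 further: growth inhibition of HuCCT-1 cells, read out by a cell viability assay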
Description: SANGER: Inhibition of human HuCCT1 cell growth in a cell viability assay.

KM12 = assay type: functional, cell-based, Homo sapiens; conditions: Homo sapiens, KM12;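 further: KM12 cell growth inhibition, read out with a cell viability assay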
Description: SANGER: Inhibition of human KM12 cell growth in a cell viability assay.

OCI-AML2 = assay type: functional, cell-based; conditions: Homo sapiens;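 further: growth inhibition of OCI-AML2 cells, read out with a cell viability assay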
Description: SANGER: Inhibition of human OCI-AML2 cell growth in a cell viability assay.

HCC1395 = assay type: functional, cell-based, Homo sapiens; conditions: Homo sapiens, HCC1395;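 further: growth inhibition of HCC1395 cells, read out by a cell viability assay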
Description: SANGER: Inhibition of human HCC1395 cell growth in a cell viability assay.

SW1783 = assay type: functional, cell-based; conditions: Homo sapiens;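 further: cell growth inhibition measured with a viability assay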
Description: SANGER: Inhibition of human SW1783 cell growth in a cell viability assay.

SK-NEP-1 = assay type: functional, cell-based; conditions: Homo sapiens;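 further: growth inhibition of human SK-NEP-1 cells, read out by a cell viability assay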
Description: SANGER: Inhibition of human SK-NEP-1 cell growth in a cell viability assay.

HAL-01 = assay type: functional, cell-based; conditions: Homo sapiens;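 further: growth inhibition of human HAL-01 cells, read out with a cell viability assay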
Description: SANGER: Inhibition of human HAL-01 cell growth in a cell viability assay.

IST-SL1 = assay type: functional, cell-based, Homo sapiens; conditions: Homo sapiens, IST-SL1;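 further: growth inhibition of human IST-SL1 cells, read out with a cell viability assay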
Description: SANGER: Inhibition of human IST-SL1 cell growth in a cell viability assay.

NB7 = assay type: functional, cell-based; conditions: Homo sapiens;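 further: growth inhibition of NB7 cells, read out with a cell viability assay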
Description: SANGER: Inhibition of human NB7 cell growth in a cell viability assay.

KU812 cell line = assay type: functional, cell-based; conditions: Homo sapiens;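 further: growth inhibition of KU812 cells, read out with a cell viability assay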
Description: SANGER: Inhibition of human KU812 cell growth in a cell viability assay.

DOK = assay type: functional, cell-based, Homo sapiens; conditions: Homo sapiens, DOK;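 further: cell viability assay read-out, values reflect inhibition of cell growth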
Description: SANGER: Inhibition of human DOK cell growth in a cell viability assay.

CTV-1 = assay type: functional, cell-based; conditions: Homo sapiens;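 further: growth inhibition of the cell line, read out with a cell viability assay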
Description: SANGER: Inhibition of human CTV-1 cell growth in a cell viability assay.

KS-1 = assay type: functional, cell-based, Homo sapiens; conditions: Homo sapiens, KS-1;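 further: growth inhibition of KS-1 cells, read out with a cell viability assay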
Description: SANGER: Inhibition of human KS-1 cell growth in a cell viability assay.

Measured: IC50

O=C(c1cc(Cc2n[nH]c(=O)c3ccccc23)ccc1F)N1CCN(C(=O)C2CC2)CC1 [OLAPARIB]
4.89 µM: H4
> 5 µM: LAMA-84 | HuP-T4 | OMC-1 | LS-411N | A-375 | MEL-HO | BFTC-905 | OVCAR-4 | KM-H2 | A204 | TE-10 | HCC1806 | G-402 | A-431 | RT-112 | IA-LM | U-87 MG | MG-63 | MC116 | UO-31 | CAL-33 | GCT | NCI-H727 | NCI-H1581 | HH | RPMI-7951 | DK-MG | BE-13 | MFM-223 | JAR | CAL-85-1 | CAMA-1 | KOSC-2 | UACC-257 | BEN | KARPAS-299 | HuCCT-1 | KM12 | OCI-AML2 | HCC1395 | SW1783 | SK-NEP-1 | HAL-01 | IST-SL1 | NB7 | KU812 cell line | DOK | CTV-1 | KS-1
2.84 µM: 697
1.33 µM: NTERA-2-cl-D1

Cc1cc(Nc2cc(N3CCN(C)CC3)nc(Sc3ccc(NC(=O)C4CC4)cc3)n2)n[nH]1 [TOZASERTIB]
1.21 µM: SK-NEP-1
0.588 µM: CTV-1
0.644 µM: OCI-AML2
1.13 µM: TE-10
0.238 µM: KS-1
1.17 µM: HAL-01
0.578 µM: LS-411N
0.264 µM: KM12
0.85 µM: MC116
> 2 µM: OMC-1 | OVCAR-4 | KM-H2 | IA-LM | U-87 MG | NCI-H1581 | HH | MFM-223 | JAR | UACC-257 | KARPAS-299 | IST-SL1 | NB7 | KU812 cell line
0.352 µM: LAMA-84
0.0143 µM: NTERA-2-cl-D1
0.00338 µM: BE-13
0.0247 µM: 697
